For 23 compounds, activity coefficient results are on record in the NIST ThermoML archive (doi:10.1016/j.jct.2010.02.006).

Numbers after ± are expanded uncertainties.

A short description of this data set: activity coefficient (dimensionless); of the first substance listed, at infinite dilution; xn = mol fraction of the nth substance listed. As to conditions: 101.3 kPa, Liquid, Chromatography, x1 = 0.

With `CCCCCCCCC` [nonane] + CCn1cc[n+](C)c1.N#C[B-](C#N)(C#N)C#N, the activity coefficient (302.8 K) turned out to be 85 ± 7.4; the activity coefficient (313.4 K) was 78.1 ± 6.8; the activity coefficient (323.1 K) was 70.8 ± 6.1; the activity coefficient (332.8 K) was 63.5 ± 5.5; the activity coefficient (343.4 K) was determined as 55.3 ± 4.8.

With `Cc1ccc(C)cc1` [1,4-dimethylbenzene] + CCn1cc[n+](C)c1.N#C[B-](C#N)(C#N)C#N, the activity coefficient is, setting by setting: (303.7 K) 2.78 ± 0.24; (313.2 K) 2.85 ± 0.25; (323.2 K) 2.87 ± 0.25; (333.3 K) 2.85 ± 0.25; (343.2 K) 2.84 ± 0.24.

For `CCCCCCCC` [octane] + CCn1cc[n+](C)c1.N#C[B-](C#N)(C#N)C#N, the activity coefficient was determined as 58.9 ± 5.1 (302.8 K); 52.5 ± 4.5 (313.4 K); 46.7 ± 4 (323.1 K); 40.7 ± 3.5 (332.8 K); 34.9 ± 3 (343.4 K).

Turning to `CCO` [ethanol] + CCn1cc[n+](C)c1.N#C[B-](C#N)(C#N)C#N, the activity coefficient reads like this: (303.5 K) 1.64 ± 0.14; (313.3 K) 1.5 ± 0.13; (323.3 K) 1.37 ± 0.12; (333.1 K) 1.27 ± 0.11; (343.1 K) 1.16 ± 0.1.

Consider `C#CCCCCC` [1-heptyne] + CCn1cc[n+](C)c1.N#C[B-](C#N)(C#N)C#N, for which the activity coefficient (303.5 K) came out at 6.33 ± 0.55; the activity coefficient (313.3 K) stood at 6.15 ± 0.53; the activity coefficient (323.3 K) was determined as 5.97 ± 0.52; the activity coefficient (333.1 K) was 5.78 ± 0.5; the activity coefficient (343.1 K) was 5.59 ± 0.48.

For the compound `CO` [methanol] + CCn1cc[n+](C)c1.N#C[B-](C#N)(C#N)C#N, the activity coefficient was found to be 1.13 ± 0.09 (303.5 K); 1.05 ± 0.09 (313.3 K); 0.97 ± 0.08 (323.3 K); 0.91 ± 0.08 (333.1 K); 0.85 ± 0.07 (343.1 K).

On to `C=CCCCCCC` [oct-1-ene] + CCn1cc[n+](C)c1.N#C[B-](C#N)(C#N)C#N, for which the activity coefficient was 30.1 ± 2.6 (303.5 K); 26.8 ± 2.3 (313.2 K); 24 ± 2.1 (323.3 K); 21.5 ± 1.9 (333.1 K); 19 ± 1.6 (343.1 K).

In the case of `CCCCCCC` [heptane] + CCn1cc[n+](C)c1.N#C[B-](C#N)(C#N)C#N, the activity coefficient by setting is: (302.8 K) 37.6 ± 3.3; (313.4 K) 32.2 ± 2.8; (323.1 K) 28.1 ± 2.4; (332.8 K) 23.8 ± 2.1; (343.4 K) 19.9 ± 1.7.

Take `C#CCCCC` [1-hexyne] + CCn1cc[n+](C)c1.N#C[B-](C#N)(C#N)C#N: the activity coefficient reads like this: (303.5 K) 4.18 ± 0.36; (313.3 K) 4.04 ± 0.35; (323.3 K) 3.92 ± 0.34; (333.1 K) 3.77 ± 0.33; (343.1 K) 3.58 ± 0.31.

As for `C1CCCCC1` [cyclohexane] + CCn1cc[n+](C)c1.N#C[B-](C#N)(C#N)C#N, the activity coefficient reads like this: (302.8 K) 13.8 ± 1.2; (313.4 K) 12.4 ± 1.1; (323.1 K) 11.2 ± 0.97; (332.8 K) 9.85 ± 0.85; (343.4 K) 8.64 ± 0.75.

Turning to `Cc1cccc(C)c1` [1,3-dimethylbenzene] + CCn1cc[n+](C)c1.N#C[B-](C#N)(C#N)C#N, the activity coefficient is, setting by setting: (303.6 K) 2.92 ± 0.25; (313.2 K) 2.99 ± 0.26; (323.2 K) 3.03 ± 0.26; (333.1 K) 3.01 ± 0.26; (343.1 K) 2.99 ± 0.26.

With `C#CCCC` [1-pentyne] + CCn1cc[n+](C)c1.N#C[B-](C#N)(C#N)C#N, the activity coefficient turned out to be 2.72 ± 0.23 (303.5 K); 2.61 ± 0.23 (313.3 K); 2.5 ± 0.22 (323.3 K); 2.38 ± 0.21 (333.1 K); 2.29 ± 0.2 (343.1 K).

`CCc1ccccc1` [ethylbenzene] + CCn1cc[n+](C)c1.N#C[B-](C#N)(C#N)C#N: the activity coefficient was 3 ± 0.26 (303.6 K); 3 ± 0.26 (313.2 K); 3.05 ± 0.26 (323.1 K); 2.97 ± 0.26 (333.2 K); 2.92 ± 0.25 (343.3 K).

Turning to `Cc1ccccc1` [toluene] + CCn1cc[n+](C)c1.N#C[B-](C#N)(C#N)C#N, the activity coefficient came to 1.9 ± 0.16 (303.6 K); 1.92 ± 0.16 (313.2 K); 1.98 ± 0.17 (323.1 K); 1.94 ± 0.17 (333.2 K); 1.92 ± 0.16 (343.3 K).

Consider `CC1CCCCC1` [methylcyclohexane] + CCn1cc[n+](C)c1.N#C[B-](C#N)(C#N)C#N, for which the activity coefficient is 20.7 ± 1.8 (302.8 K); 18.9 ± 1.6 (313.4 K); 16.9 ± 1.5 (323.1 K); 15.2 ± 1.3 (332.8 K); 13.3 ± 1.1 (343.4 K).

As to `c1ccccc1` [benzene] + CCn1cc[n+](C)c1.N#C[B-](C#N)(C#N)C#N, the activity coefficient was determined as 1.31 ± 0.11 (303.6 K); 1.31 ± 0.11 (313.3 K); 1.34 ± 0.11 (323.2 K); 1.31 ± 0.11 (333.3 K); 1.3 ± 0.11 (343.2 K).

On to `CCCCCC` [hexane] + CCn1cc[n+](C)c1.N#C[B-](C#N)(C#N)C#N, for which the activity coefficient reads like this: (302.8 K) 21 ± 1.8; (313.4 K) 17.4 ± 1.5; (323.1 K) 15.1 ± 1.3; (332.8 K) 12.5 ± 1.1; (343.4 K) 10.3 ± 0.89.

As to `Cc1ccccc1C` [1,2-dimethylbenzene] + CCn1cc[n+](C)c1.N#C[B-](C#N)(C#N)C#N, the activity coefficient (303.6 K) is 2.49 ± 0.21; the activity coefficient (313.3 K) is 2.53 ± 0.22; the activity coefficient (323.2 K) amounted to 2.58 ± 0.22; the activity coefficient (333.2 K) amounted to 2.56 ± 0.22; the activity coefficient (343.1 K) came to 2.54 ± 0.22.

Regarding `C#CCCCCCC` [1-octyne] + CCn1cc[n+](C)c1.N#C[B-](C#N)(C#N)C#N, the activity coefficient worked out at 9.64 ± 0.83 (303.5 K); 9.42 ± 0.81 (313.3 K); 9.11 ± 0.79 (323.3 K); 8.84 ± 0.76 (333.1 K); 8.58 ± 0.74 (342.8 K).

`CCCO` [propan-1-ol] + CCn1cc[n+](C)c1.N#C[B-](C#N)(C#N)C#N: the activity coefficient is, setting by setting: (303.5 K) 2.12 ± 0.18; (313.3 K) 1.92 ± 0.17; (323.3 K) 1.74 ± 0.15; (333.1 K) 1.6 ± 0.14; (343.1 K) 1.46 ± 0.12.

On to `C=CCCCC` [hex-1-ene] + CCn1cc[n+](C)c1.N#C[B-](C#N)(C#N)C#N, for which the activity coefficient (303.5 K) came out at 11.3 ± 0.97; the activity coefficient (313.2 K) was found to be 9.74 ± 0.84; the activity coefficient (323.3 K) was 8.39 ± 0.72; the activity coefficient (333.1 K) is 7.35 ± 0.63; the activity coefficient (343.1 K) is 6.27 ± 0.54.

For the compound `C=CCCCCCCCC` [1-decene] + CCn1cc[n+](C)c1.N#C[B-](C#N)(C#N)C#N, the activity coefficient turned out to be 60.5 ± 5.2 (303.5 K); 56 ± 4.8 (313.2 K); 51.5 ± 4.5 (323.3 K); 47.8 ± 4.1 (333.1 K); 43.4 ± 3.8 (343.1 K).

On to `CCCCC` [pentane] + CCn1cc[n+](C)c1.N#C[B-](C#N)(C#N)C#N, for which the activity coefficient stood at 10.3 ± 0.89 (302.8 K); 8.21 ± 0.71 (313.4 K); 7.05 ± 0.61 (323.1 K); 5.92 ± 0.51 (332.8 K); 4.88 ± 0.42 (343.4 K).
